Assay results from ChEMBL document CHEMBL3875146, “Mycobacterium Tuberculosis (MTB) GyrB inhibitors: An attractive approach for developing novel drugs against TB” (Eur J Med Chem, 2016).
≈ marks a conversion by molar mass, not a printed value.

What was measured:
[1] = tested on: Mycobacterium tuberculosis; assay: Antimycobacterial activity against Mycobacterium tuberculosis; type: functional
[2] = target: T1, DNA gyrase subunit A/DNA gyrase subunit B (Mycobacterium tuberculosis (strain ATCC 25618 / H37Rv), UniProt P9WG45+P9WG47); assay: (§1) Inhibition of Mycobacterium tuberculosis DNA gyrase assessed as inhibition of DNA supercoiling activity using relaxed pBR322 as substrate incubated for 30 mins in presence of ATP by ethidium bromide staining based agarose gel electrophoresis
[3] = as §1, with “Staphylococcus aureus WCUH29” for “Mycobacterium tuberculosis”, “gyrase expressed in Escherichia coli Rosetta 2 (DE3) pLysS cells” for “gyrase”
[4] = Inhibition of Escherichia coli DNA gyrase assessed as inhibition of DNA supercoiling activity using relaxed pBR322 as substrate incubated for 30 mins in presence of ATP by ethidium bromide staining based agarose gel electrophoresis
[5] = tested on: Mycobacterium tuberculosis; assay: Antimycobacterial activity against Mycobacterium tuberculosis measured after 5 days by microplate alamar blue assay; type: functional; settings: 120 h
[6] = target: DNA gyrase subunit B (Mycobacterium smegmatis) (UniProt P0C559); assay: Inhibition of Mycobacterium smegmatis DNA gyrase-B ATPase activity after 30 mins by ammonium molybdate/malachite green-based phosphate detection assay; settings: Mycolicibacterium smegmatis
[7] = tested on: Mycobacterium tuberculosis; assay: Inhibition of Mycobacterium tuberculosis topoisomerase-1 using DNA as substrate preincubated for 15 mins followed by substrate addition measured after 30 mins by ethidium-bromide based agarose gel electrophoresis
[8] = target: T1, DNA gyrase subunit A/DNA gyrase subunit B; assay: (§2) Inhibition of Mycobacterium tuberculosis DNA gyrase assessed as inhibition of DNA supercoiling activity using relaxed pBR322 as substrate incubated for 30 mins by ethidium bromide staining based agarose gel electrophoresis
DNA gyrase subunit B = DNA gyrase subunit B (Mycobacterium smegmatis, UniProt P0C559); assay: Inhibition of Mycobacterium smegmatis DNA gyrase B expressed in BL21(DE3)pLysS cells assessed as inhibition of […] activity in presence of ATP measured after 30 mins by malachite green dye based assay; type: cell-based, Mycolicibacterium smegmatis
[9] = Cytotoxicity against mouse RAW264.7 cells assessed as inhibition of cell viability at 100 uM measured after 72 hrs by MTT assay relative to control; type: toxicity; settings: read-out: INH
[10] = target: DNA gyrase subunit A/DNA gyrase subunit B (Mycobacterium tuberculosis (strain ATCC 25618 / H37Rv)) (UniProt P9WG45+P9WG47); assay: as §2
Escherichia coli = assay: Antimicrobial activity against Escherichia coli; type: functional

Sequence of DNA gyrase subunit B (P0C559 whole entry): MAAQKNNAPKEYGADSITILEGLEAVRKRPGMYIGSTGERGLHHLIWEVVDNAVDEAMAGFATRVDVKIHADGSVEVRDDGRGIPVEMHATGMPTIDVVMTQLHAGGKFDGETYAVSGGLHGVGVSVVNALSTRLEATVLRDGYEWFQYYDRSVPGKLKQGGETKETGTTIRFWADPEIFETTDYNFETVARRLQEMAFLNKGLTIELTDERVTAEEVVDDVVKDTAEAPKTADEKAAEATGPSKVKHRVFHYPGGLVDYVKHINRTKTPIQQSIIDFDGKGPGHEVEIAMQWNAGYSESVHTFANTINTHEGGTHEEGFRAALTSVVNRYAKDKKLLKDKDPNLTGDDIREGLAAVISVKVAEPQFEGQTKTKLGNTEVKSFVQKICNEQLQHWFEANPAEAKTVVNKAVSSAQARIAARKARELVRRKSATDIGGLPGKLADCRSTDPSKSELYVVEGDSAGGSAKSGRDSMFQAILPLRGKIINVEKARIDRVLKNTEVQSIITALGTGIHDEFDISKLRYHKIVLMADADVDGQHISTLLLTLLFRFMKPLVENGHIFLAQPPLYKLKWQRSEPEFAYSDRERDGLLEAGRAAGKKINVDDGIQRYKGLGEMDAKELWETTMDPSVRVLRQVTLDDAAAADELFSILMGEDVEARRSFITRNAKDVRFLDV
T1 sequence (P9WG45 whole entry): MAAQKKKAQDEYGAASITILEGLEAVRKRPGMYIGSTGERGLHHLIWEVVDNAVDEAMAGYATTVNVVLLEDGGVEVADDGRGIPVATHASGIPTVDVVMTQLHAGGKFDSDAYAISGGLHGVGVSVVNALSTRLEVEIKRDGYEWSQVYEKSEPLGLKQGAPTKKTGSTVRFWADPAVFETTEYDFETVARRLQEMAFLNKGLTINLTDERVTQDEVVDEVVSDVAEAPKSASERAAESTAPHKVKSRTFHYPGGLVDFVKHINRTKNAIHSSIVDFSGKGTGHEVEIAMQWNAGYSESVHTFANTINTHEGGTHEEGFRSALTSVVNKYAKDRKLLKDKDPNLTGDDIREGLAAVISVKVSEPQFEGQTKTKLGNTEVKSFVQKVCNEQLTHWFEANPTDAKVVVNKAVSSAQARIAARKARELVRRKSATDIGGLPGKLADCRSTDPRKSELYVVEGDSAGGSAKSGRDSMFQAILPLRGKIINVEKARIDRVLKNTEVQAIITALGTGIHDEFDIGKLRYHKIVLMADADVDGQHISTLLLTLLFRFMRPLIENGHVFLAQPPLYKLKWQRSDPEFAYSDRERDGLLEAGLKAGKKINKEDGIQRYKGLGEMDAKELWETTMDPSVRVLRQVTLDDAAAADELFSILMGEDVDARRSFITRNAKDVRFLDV
T1 sequence (P9WG47 whole entry): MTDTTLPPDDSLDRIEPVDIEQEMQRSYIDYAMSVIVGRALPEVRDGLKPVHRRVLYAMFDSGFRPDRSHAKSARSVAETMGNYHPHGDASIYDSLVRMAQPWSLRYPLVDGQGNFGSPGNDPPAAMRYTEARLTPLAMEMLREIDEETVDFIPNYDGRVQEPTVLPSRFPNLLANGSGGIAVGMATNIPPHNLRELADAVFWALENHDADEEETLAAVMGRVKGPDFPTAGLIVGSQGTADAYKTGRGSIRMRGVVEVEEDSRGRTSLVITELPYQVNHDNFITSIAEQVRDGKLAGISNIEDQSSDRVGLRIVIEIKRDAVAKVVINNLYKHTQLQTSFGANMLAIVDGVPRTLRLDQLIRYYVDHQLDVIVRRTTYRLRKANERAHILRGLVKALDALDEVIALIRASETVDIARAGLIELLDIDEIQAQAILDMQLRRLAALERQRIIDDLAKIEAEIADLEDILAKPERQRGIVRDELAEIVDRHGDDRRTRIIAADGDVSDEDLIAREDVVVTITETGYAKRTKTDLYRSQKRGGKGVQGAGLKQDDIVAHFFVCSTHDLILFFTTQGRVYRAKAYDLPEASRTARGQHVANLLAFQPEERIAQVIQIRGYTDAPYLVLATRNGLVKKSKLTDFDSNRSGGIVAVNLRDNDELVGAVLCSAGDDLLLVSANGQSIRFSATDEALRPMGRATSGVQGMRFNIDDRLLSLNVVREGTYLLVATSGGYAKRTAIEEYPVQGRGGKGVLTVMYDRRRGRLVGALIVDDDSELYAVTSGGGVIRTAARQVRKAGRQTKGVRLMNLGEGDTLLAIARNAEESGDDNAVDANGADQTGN
Sequence of DNA gyrase subunit B (Mycobacterium smegmatis) (P0C559 2-675 limits assumed): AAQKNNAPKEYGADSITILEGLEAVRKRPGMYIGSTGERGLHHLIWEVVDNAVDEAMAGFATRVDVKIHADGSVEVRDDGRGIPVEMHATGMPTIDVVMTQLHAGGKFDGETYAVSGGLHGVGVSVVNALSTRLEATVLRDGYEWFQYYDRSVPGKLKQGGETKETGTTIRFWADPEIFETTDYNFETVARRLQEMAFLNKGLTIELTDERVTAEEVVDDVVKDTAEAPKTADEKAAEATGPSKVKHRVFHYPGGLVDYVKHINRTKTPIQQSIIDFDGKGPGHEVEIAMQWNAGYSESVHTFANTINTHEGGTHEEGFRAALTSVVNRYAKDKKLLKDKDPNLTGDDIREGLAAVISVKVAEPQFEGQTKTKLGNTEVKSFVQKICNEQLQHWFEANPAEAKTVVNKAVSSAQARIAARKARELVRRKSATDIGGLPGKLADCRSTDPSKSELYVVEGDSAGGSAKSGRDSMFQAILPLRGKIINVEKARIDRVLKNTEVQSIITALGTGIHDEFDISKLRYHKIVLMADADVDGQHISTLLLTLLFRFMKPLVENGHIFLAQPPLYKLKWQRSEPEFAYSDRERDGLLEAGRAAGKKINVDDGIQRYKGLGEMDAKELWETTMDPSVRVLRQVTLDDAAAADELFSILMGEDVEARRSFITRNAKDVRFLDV

O=C1CSc2ccc(CNC3CCN(CC4CCN5C(=O)C=CC6N=CC(=O)N4C65)CC3)nc2N1 (configuration not stated)
MIC [1]: 300 to 2000 µg/mL (≈ 605 to 4040 µM)

Cc1cc(O)c2c(c1)C(=O)C=CC2=O [RAMENTACEONE]
IC50 [2]: 30 µM
IC50 [3]: 60 µM
IC50 [4]: 30 µM

Cc1cc(O)c2c(c1)C(=O)C=C(c1c(C)cc(O)c3c1C(=O)C=CC3=O)C2=O [NEODIOSPYRIN]
IC50 [2]: 50 µM

CC1=CC(=O)c2ccccc2C1=O [MENADIONE]
IC50 [2]: > 200 µM

O=C1COc2ccc(CNC3CCN(CC4CCc5c(F)ccc6ccc(=O)n4c56)CC3)nc2N1 (configuration not stated)
MIC [1]: 300 to 2000 µg/mL (≈ 628 to 4190 µM)

Cc1cc(O)c2c(c1)C(=O)C(c1c(C)cc3c(c1O)C(=O)C=CC3=O)=CC2=O [DIOSPYRIN]
IC50 [2]: 15 µM
IC50 [3]: 8 µM
IC50 [4]: 4 µM

CCNC(=O)Nc1nc2cc(-c3cncnc3)c(OCC3CCOCC3)nc2s1
MIC [5]: 60 µg/mL (≈ 145 µM)
INH [6]: 2.5 nM

Cc1ccc(-c2cnc3cc(-c4ccc5[nH]ccc5c4)cnc3n2)cc1
INH [7]: 0.1 µM

Clc1cccc(-c2cnc3cc(-c4ccc5cn[nH]c5c4)cnc3n2)c1
INH [7]: 7.5 µM

COc1ccc2ncc(=O)n(-c3cnc4c(c3)CCC(NCc3ccc5c(n3)NC(=O)CO5)C4)c2n1 (configuration not stated)
MIC [1]: 300 to 2000 µg/mL (≈ 618 to 4120 µM)

O=C1COc2ccc(CNC3CCN(CCn4c(=O)ccc5cc(F)ccc54)CC3)nc2N1
MIC [1]: 300 to 2000 µg/mL (≈ 664 to 4430 µM)

Cc1cc(O)c2c(c1)C(O)CCC2=O (configuration not stated)
IC50 [2]: > 200 µM

c1ccc(N2CCC(Cc3nc4cc5ccccc5cc4nc3CN3CCN(c4ccccn4)CC3)CC2)nc1
INH [7]: 7.5 µM

O=C1C(=O)N(CCN2CCN(NCc3ccc(Cl)cc3Cl)CC2)c2ccc(Cl)cc21
IC50 [8]: 50 µM
IC50 (DNA gyrase subunit B): 68 µM
cytotoxicity at 72 h, 100 µM [9]: 24%

O=C1C(=O)N(CCN2CCN(NCc3cccc(Cl)c3Cl)CC2)c2ccc(Cl)cc21
IC50 [8]: 25.6 µM
IC50 (DNA gyrase subunit B): 43.2 µM
cytotoxicity at 72 h, 100 µM [9]: 17.4%

O=C1C(=O)N(CCN2CCN(NCc3ccccc3F)CC2)c2ccccc21
IC50 [8]: 43.6 µM
IC50 (DNA gyrase subunit B): 83 µM
cytotoxicity at 72 h, 100 µM [9]: 10.3%

Cc1ccc2c(c1)C(=O)C(=O)N2CCN1CCN(NCc2ccc(Cl)cc2Cl)CC1
IC50 [8]: 48.9 µM
IC50 (DNA gyrase subunit B): 79 µM
cytotoxicity at 72 h, 100 µM [9]: 25.3%

O=C1C(=O)N(CCN2CCN(NCc3ccccc3OCc3ccccc3)CC2)c2ccc(F)cc21
IC50 [8]: 42.3 µM
IC50 (DNA gyrase subunit B): 70.1 µM
cytotoxicity at 72 h, 100 µM [9]: 11.7%

O=C1C(=O)N(CCN2CCN(NCc3ccccc3F)CC2)c2ccc(F)cc21
IC50 [8]: 4.2 µM
IC50 (DNA gyrase subunit B): 20.3 µM
cytotoxicity at 72 h, 100 µM [9]: 22.1%

O=C1C(=O)N(CCN2CCN(NCc3ccc(Cl)cc3Cl)CC2)c2ccccc21
IC50 [8]: 40.3 µM
IC50 (DNA gyrase subunit B): 84 µM
cytotoxicity at 72 h, 100 µM [9]: 18.5%

Cc1ccc2c(c1)C(=O)C(=O)N2CCN1CCN(NCc2ccccc2F)CC1
IC50 [8]: 50 µM
IC50 (DNA gyrase subunit B): 76 µM
cytotoxicity at 72 h, 100 µM [9]: 27.6%

Cn1ccc2cc(-c3cnc4nc(-c5ccccc5)cnc4c3)ccc21
INH [7]: 0.1 µM

Brc1c2ccccc2c(Br)c2nc(-c3ccco3)c(-c3ccco3)nc12
INH [7]: 0.1 µM

O=C1C(=O)N(CCN2CCN(NCc3ccc([N+](=O)[O-])o3)CC2)c2ccc(Cl)cc21
IC50 [8]: 23.9 µM
IC50 (DNA gyrase subunit B): 47.5 µM
cytotoxicity at 72 h, 100 µM [9]: 34.2%

COc1ccc2c(c1)C(=O)C(=O)N2CCN1CCN(NCc2ccccc2C(F)(F)F)CC1
IC50 [8]: 39.1 µM
IC50 (DNA gyrase subunit B): 61.5 µM
cytotoxicity at 72 h, 100 µM [9]: 10.5%

O=C1C(=O)N(CCN2CCN(NCc3ccc(Cl)cc3Cl)CC2)c2ccc(F)cc21
IC50 [8]: 24.2 µM
IC50 (DNA gyrase subunit B): 43 µM
cytotoxicity at 72 h, 100 µM [9]: 13.9%

O=C1C(=O)N(CCN2CCN(NCc3ccc([N+](=O)[O-])o3)CC2)c2ccccc21
IC50 [8]: 4.6 µM
IC50 (DNA gyrase subunit B): 20.2 µM
cytotoxicity at 72 h, 100 µM [9]: 30.6%

Clc1ccc(/N=N/c2cnc3cc4ccccc4cc3n2)cc1
INH [10]: 12 µM

O=C1C(=O)N(CCN2CCN(NCc3ccccc3C(F)(F)F)CC2)c2ccccc21
IC50 [8]: 25 µM
IC50 (DNA gyrase subunit B): 51 µM
cytotoxicity at 72 h, 100 µM [9]: 4.2%

COc1ccccc1CNN1CCN(CCN2C(=O)C(=O)c3cc(Cl)ccc32)CC1
IC50 [8]: 50 µM
IC50 (DNA gyrase subunit B): 76 µM
cytotoxicity at 72 h, 100 µM [9]: 24%

COc1ccc2c(c1)C(=O)C(=O)N2CCN1CCN(NCc2ccccc2OC)CC1
IC50 [8]: 48.6 µM
IC50 (DNA gyrase subunit B): 81.2 µM
cytotoxicity at 72 h, 100 µM [9]: 15.4%

Cc1cc2c(c(O)c1-c1c(C)cc(O)c3c1C(=O)C=CC3=O)C(=O)C=CC2=O
IC50 [2]: 100 µM

Fc1ccc(/N=N/c2cnc3cc4ccccc4cc3n2)cc1
INH [10]: 50 µM

O=C1C(=O)N(CCN2CCN(NCc3cccc(Cl)c3Cl)CC2)c2ccccc21
IC50 [8]: 4.8 µM
IC50 (DNA gyrase subunit B): 21.7 µM
cytotoxicity at 72 h, 100 µM [9]: 16.8%

CCCCCCN1CCC(CCC(O)c2ccnc3ccc(OC)cc23)C(CC)C1 (configuration not stated)
MIC (Escherichia coli): 4000 µg/mL (≈ 9690 µM)
